# Results taken from patent US5286729A, “Angiotensin II receptor blocking 2,3,6 substituted quinazolinones” (American Cyanamid Company, priority 1993, dated 1994).
# “And” between values parts separate entries of the source, which are not always exact repeats. Equal entries are not always repeated.
# System: ANGIOTENSIN II (AII) VASOPRESSOR RESPONSE
# Assay: AII Challenge: % inhibition (angiotensin blockage) of angiotensin II vasopressor response in conscious SHR
# Assay type: in vivo, rat (Male Okamoto-Aoki SHR)
# Conditions: for Response After AII / Change / Control Before AII: individual rats
# From the text: By administering a compound of this invention to a rat, and then challenging with angiotensin II, a blockage of the vasopressor response is realized. The results of this test on representative compounds of this invention are shown in Table V. Conscious Male Okamoto-Aoki SHR, 16-20 weeks old, weighing approximately 330 g are purchased from Charles River Labs (Wilmington, MA). Conscious rats are restrained in a supine position with elastic tape. The area at the base of the tail is locally anesthetized by subcutaneous infiltration with 2% procaine. The central caudal artery and vein are isolated, and a cannula made of polyethylene (PE) 10-20 tubing (fused together by heat) is passed into the lower abdominal aorta and vena cava, respectively. The cannula is secured, heparinized (1,000 I.U./ml), sealed and the wound is closed. The animals are placed in plastic restraining cages in an upright position. The cannula is attached to a Statham P23Db pressure transducer, and pulsatile blood pressure is recorded to 10-15 minutes with a Gould Brush recorder. (Chan et al., (Drug Development Res., 18:75-94, 1989). Angiotensin II (human sequence, Sigma Chem. Co., St. Louis, MO) of 0.05 and 0.1 ug/kg i.v. is injected into all rats (predosing repsonse). Then a test compound, vehicle or a known angiotensin II antagonist is administered i.v., i.p. or orally to each set of rats. The two doses of angiotensin II are given to each rat again at 30, 60, 90, 120, 180, 240 and 300 minutes post dosing the compound or vehicle. The vasopressor response of angiotensin II is measured for the increase in systolic blood pressure in mmHg. The percentage of antagonism or blockade of the vasopressor response of angiotensin II by a compound is calculated using the vasopressor response (increase in systolic blood pressure) of angiotensin II of each rat predosing the compound as 100%. A compound is considered active if at 30 mg/kg i.v. it antagonized at least 50% of the response.
# [1] = 5 mg/kg IV, AII 0.05 mcg/kg IV, 30 min post dose
# [2] = 5 mg/kg IV, AII 0.05 mcg/kg IV, 30 min post dose, monohydrochloride
# [3] = 5 mg/kg IV, AII 0.05 mcg/kg IV, 60 min post dose
# [4] = 5 mg/kg IV, AII 0.05 mcg/kg IV, 60 min post dose, monohydrochloride
# [5] = 5 mg/kg IV, AII 0.05 mcg/kg IV, 90 min post dose
# [6] = 5 mg/kg IV, AII 0.05 mcg/kg IV, 90 min post dose, monohydrochloride
# [7] = 5 mg/kg IV, AII 0.05 mcg/kg IV, 120 min post dose
# [8] = 5 mg/kg IV, AII 0.05 mcg/kg IV, 120 min post dose, monohydrochloride
# [9] = 5 mg/kg IV, AII 0.05 mcg/kg IV, 180 min post dose
# [10] = 5 mg/kg IV, AII 0.05 mcg/kg IV, 180 min post dose, monohydrochloride
# [11] = 5 mg/kg IV, AII 0.1 mcg/kg IV, 30 min post dose
# [12] = 5 mg/kg IV, AII 0.1 mcg/kg IV, 30 min post dose, monohydrochloride
# [13] = 5 mg/kg IV, AII 0.1 mcg/kg IV, 60 min post dose
# [14] = 5 mg/kg IV, AII 0.1 mcg/kg IV, 60 min post dose, monohydrochloride
# [15] = 5 mg/kg IV, AII 0.1 mcg/kg IV, 90 min post dose
# [16] = 5 mg/kg IV, AII 0.1 mcg/kg IV, 90 min post dose, monohydrochloride
# [17] = 5 mg/kg IV, AII 0.1 mcg/kg IV, 120 min post dose
# [18] = 5 mg/kg IV, AII 0.1 mcg/kg IV, 120 min post dose, monohydrochloride
# [19] = 5 mg/kg IV, AII 0.1 mcg/kg IV, 180 min post dose
# [20] = 5 mg/kg IV, AII 0.1 mcg/kg IV, 180 min post dose, monohydrochloride
# [21] = 10 mg/kg P.O., AII 0.05 mcg/kg IV, 30 min post dose
# [22] = 10 mg/kg P.O., AII 0.05 mcg/kg IV, 30 min post dose, monohydrochloride
# [23] = 10 mg/kg P.O., AII 0.05 mcg/kg IV, 60 min post dose
# [24] = 10 mg/kg P.O., AII 0.05 mcg/kg IV, 60 min post dose, monohydrochloride
# [25] = 10 mg/kg P.O., AII 0.05 mcg/kg IV, 90 min post dose
# [26] = 10 mg/kg P.O., AII 0.05 mcg/kg IV, 90 min post dose, monohydrochloride
# [27] = 10 mg/kg P.O., AII 0.05 mcg/kg IV, 120 min post dose
# [28] = 10 mg/kg P.O., AII 0.05 mcg/kg IV, 120 min post dose, monohydrochloride
# [29] = 10 mg/kg P.O., AII 0.05 mcg/kg IV, 180 min post dose
# [30] = 10 mg/kg P.O., AII 0.05 mcg/kg IV, 180 min post dose, monohydrochloride
# [31] = 10 mg/kg P.O., AII 0.1 mcg/kg IV, 30 min post dose
# [32] = 10 mg/kg P.O., AII 0.1 mcg/kg IV, 30 min post dose, monohydrochloride
# [33] = 10 mg/kg P.O., AII 0.1 mcg/kg IV, 60 min post dose
# [34] = 10 mg/kg P.O., AII 0.1 mcg/kg IV, 90 min post dose
# [35] = 10 mg/kg P.O., AII 0.1 mcg/kg IV, 120 min post dose
# [36] = 10 mg/kg P.O., AII 0.1 mcg/kg IV, 120 min post dose, monohydrochloride
# [37] = 10 mg/kg P.O., AII 0.1 mcg/kg IV, 180 min post dose
# [38] = 10 mg/kg P.O., AII 0.1 mcg/kg IV, 180 min post dose, monohydrochloride
structure (smiles),measurement,setting,value
"CCCCc1nc2ccc(COc3ccccn3)cc2c(=O)n1Cc1ccc(-c2ccccc2-c2nnn[nH]2)cc1.Cl [Example 12, 2-Butyl-6-[(2-pyridinyloxy)methyl]-3-[[2'-(1H-tetrazol-5-yl)[1,1'-biphenyl]-4-yl]methyl]-4(3H)-quinazolinone monohydrochloride]",% Inhibition,[1],62%
same,Average Change,[1],12.5 mmHg
same,Response After AII,[1],195 mmHg
same,Change,[2],10 mmHg and 15 mmHg
same,Control Before AII,[2],185 mmHg and 180 mmHg
same,% Inhibition,[3],92%
same,Average Change,[3],2.5 mmHg
same,Control Before AII,[3],175 mmHg
same,Response After AII,[3],180 mmHg
same,Change,[4],0 mmHg and 5 mmHg
same,Response After AII,[4],175 mmHg
same,% Inhibition,[5],69%
same,Average Change,[5],10 mmHg
same,Change,[5],10 mmHg
same,Response After AII,[5],170 mmHg
same,Control Before AII,[6],160 mmHg and 165 mmHg
same,Response After AII,[6],175 mmHg
same,% Inhibition,[7],77%
same,Average Change,[7],7.5 mmHg
same,Control Before AII,[7],165 mmHg
same,Response After AII,[7],170 mmHg
same,Change,[8],10 mmHg and 5 mmHg
same,Response After AII,[8],175 mmHg
same,% Inhibition,[9],66%
same,Average Change,[9],11 mmHg
same,Change,[10],7 mmHg and 15 mmHg
same,Control Before AII,[10],165 mmHg and 155 mmHg
same,Response After AII,[10],172 mmHg and 170 mmHg
same,% Inhibition,[11],65%
same,Average Change,[11],15 mmHg
same,Control Before AII,[11],185 mmHg
same,Response After AII,[11],195 mmHg
same,Change,[12],10 mmHg and 20 mmHg
same,Control Before AII,[12],175 mmHg
same,% Inhibition,[13],71%
same,Average Change,[13],12.5 mmHg
same,Response After AII,[13],185 mmHg
same,Change,[14],15 mmHg and 10 mmHg
same,Control Before AII,[14],170 mmHg and 175 mmHg
same,% Inhibition,[15],76%
same,Average Change,[15],10 mmHg
same,Change,[15],10 mmHg
same,Control Before AII,[16],160 mmHg and 170 mmHg
same,Response After AII,[16],170 mmHg and 180 mmHg
same,% Inhibition,[17],65%
same,Average Change,[17],15 mmHg
same,Control Before AII,[17],165 mmHg
same,Change,[18],20 mmHg and 10 mmHg
same,Response After AII,[18],185 mmHg and 175 mmHg
same,% Inhibition,[19],51%
same,Average Change,[19],21 mmHg
same,Control Before AII,[19],160 mmHg
same,Change,[20],20 mmHg and 22 mmHg
same,Response After AII,[20],180 mmHg and 182 mmHg
same,% Inhibition,[21],56%
same,Average Change,[21],17.5 mmHg
same,Control Before AII,[21],185 mmHg
same,Response After AII,[21],210 mmHg
same,Change,[22],25 mmHg and 10 mmHg
same,Control Before AII,[22],200 mmHg
same,% Inhibition,[23],44%
same,Average Change,[23],22.5 mmHg
same,Control Before AII,[23],185 mmHg
same,Response After AII,[23],220 mmHg
same,Change,[24],25 mmHg and 20 mmHg
same,Control Before AII,[24],195 mmHg
same,Response After AII,[24],205 mmHg
same,% Inhibition,[25],59%
same,Average Change,[25],16.5 mmHg
same,Control Before AII,[25],195 mmHg
same,Change,[26],30 mmHg and 3 mmHg
same,Control Before AII,[26],190 mmHg
same,Response After AII,[26],220 mmHg and 198 mmHg
same,% Inhibition,[27],69%
same,Average Change,[27],12.5 mmHg
same,Control Before AII,[27],210 mmHg
same,Response After AII,[27],230 mmHg
same,Change,[28],20 mmHg and 5 mmHg
same,Response After AII,[28],215 mmHg
same,% Inhibition,[29],50%
same,Average Change,[29],20 mmHg
same,Control Before AII,[29],185 mmHg
same,Change,[30],25 mmHg and 15 mmHg
same,Response After AII,[30],210 mmHg and 200 mmHg
same,% Inhibition,[31],34%
same,Average Change,[31],27.5 mmHg
same,Response After AII,[31],220 mmHg
same,Change,[32],35 mmHg and 20 mmHg
same,Control Before AII,[32],185 mmHg and 200 mmHg
same,% Inhibition,[33],16%
same,Average Change,[33],35 mmHg
same,Change,[33],35 mmHg
same,Control Before AII,[33],185 mmHg
same,Response After AII,[33],220 mmHg
same,% Inhibition,[34],28%
same,Average Change,[34],30 mmHg
same,Change,[34],30 mmHg
same,Control Before AII,[34],190 mmHg
same,Response After AII,[34],220 mmHg
same,% Inhibition,[35],52%
same,Average Change,[35],20 mmHg
same,Control Before AII,[35],205 mmHg
same,Response After AII,[35],235 mmHg
same,Change,[36],30 mmHg and 10 mmHg
same,Response After AII,[36],215 mmHg
same,% Inhibition,[37],40%
same,Average Change,[37],25 mmHg
same,Response After AII,[37],210 mmHg
same,Change,[38],35 mmHg and 15 mmHg
same,Control Before AII,[38],190 mmHg and 195 mmHg
same,Response After AII,[38],225 mmHg
